The values below come from PubChem BioAssay (NCI).

Values joined by “and” are separate entries in the source; they are usually repeats but may differ in a detail not shown here. Equal entries are not always repeated.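 Dose response: 5 concentrations. Exposure: 48 h. Format: 96-well plates. Endpoint: linear interpolation; highest concentration if not reached. GI50 = concentration required for 50% inhibition of growth. TGI: concentration producing complete growth inhibition.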 Where only a bound is given, the exact number is not on record here.

Holding throughout (test): growth of human tumour cells (NCI), 48 h
Assay [1] relates to 786-0 renal.
For assay [2], the system named is T-47D breast.
Assay [3] relates to OVCAR-3 ovarian.
The subject of assay [4] is CCRF-CEM leukemia.
Assay [5] has as its system TK-10 renal.
In assay [6] the test system is SR leukemia.
Assay [7] concerns CAKI-1 renal.
For assay [8], the system named is MDA-MB-435.
Assay [9] relates to NCI/ADR-RES ovarian.
Assay [10] has as its system ACHN renal.

Turning to `O=C1C[C@@H]2OCC=C3C[N+]4([O-])CC[C@]56c7ccccc7N1[C@H]5[C@H]2[C@H]3C[C@@H]64` (stereo not given in full), the GI50 in assay [1], in [2], in assay [3], in assay [4], in assay [5] and in [6] was above 100 µM each time. In addition, the GI50 in assay [7], in [8], in [9] and in assay [10] was above 100 µM each time. The TGI in assay [1], in assay [2], in assay [3], in assay [4], in assay [5] and in assay [6] was above 100 µM in each case. Also, the TGI in assay [7], in assay [8], in assay [9] and in assay [10] was above 100 µM in each case.

With `NS(=O)(=O)c1cc2c(cc1Cl)NCNS2(=O)=O`, the TGI in [1], in [2], in assay [3], in assay [4], in assay [5] and in [6] was above 100 µM in each case. In addition, the TGI in [7], in assay [8], in assay [9] and in assay [10] was above 100 µM throughout.

In the case of `N=C(N)SCc1ccc(Cl)c2ccccc12` (tested in a mixture with another compound), the TGI in [1] was 23.9 µM and 27.2 µM; in assay [2], 18.3 µM and 21.7 µM; in assay [3], 23.6 µM and 25 µM; in assay [4], 26.4 µM and 17.4 µM; in assay [5] it was 20.9 µM and 19.7 µM; in assay [6] it was 22.8 µM and 8.03 µM. For the same compound, the TGI is 19.2 µM and 24.4 µM in assay [7]; 21.5 µM and 22.2 µM in assay [8]; 48.1 µM and 55.2 µM in assay [9]; 25.1 µM and 25.8 µM in [10].
